Test results reported in US8580825B2, “Oxadiazole inhibitors of leukotriene production” (Boehringer Ingelheim International GmbH, priority 2010, dated 2013).

How the values were obtained:
[1] = target: T1, recombinant human FLAP protein (Homo sapiens, UniProt P20292); assay: FLAP binding assay (Scintillation Proximity Assay, displacement of [125I]L-691,831); details: read-out: FLAP SPA IC50
T1 construct: made in house; host or cells: Sf9 insect cells (100,000xg membrane fraction used)
T1 sequence (P20292 1-161): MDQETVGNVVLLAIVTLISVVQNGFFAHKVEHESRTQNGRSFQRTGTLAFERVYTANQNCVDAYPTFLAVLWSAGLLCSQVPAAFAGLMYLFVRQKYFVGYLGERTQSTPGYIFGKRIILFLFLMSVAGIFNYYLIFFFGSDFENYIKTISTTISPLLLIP
How it was run: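 Scintillation proximity displacement of [125I]L-691,831 (0.08 nM) from membranes of sf9 cells expressing recombinant human FLAP (5 μg/well) on WGA SPA beads, pH 7.5 Tris buffer. Plates shaken 2 h before counting. Non-specific binding defined with 10 μM unlabelled L-691,831.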

[2] = test system: synthesis of LTB4 in human whole blood; assay: human whole blood LTB4 production inhibition assay; assay type: cell-based; details: calcimycin stimulated, read-out: hWB LTB4 IC50
How it was run: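 Readout: plasma LTB4 by antibody-based HTRF. Compound added to heparinized human whole blood, 15 min 37° C; calcimycin 20 μM final (PBS pH 7.4), 30 min 37° C; spun 1500×g 5 min, plasma taken.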

Structure (SMILES)	IC50 [1]	IC50 [2]
COCCn1cc(-c2nc([C@](C)(c3ccc(-c4cnc(N)cn4)nc3)C3CC3)no2)cn1 [Example 127, 5-[5-((S)-1-Cyclopropyl-1-{5-[1-(2-methoxy-ethyl)-1H-pyrazol-4-yl]-[1,2,4]oxadiazol-3-yl}-ethyl)-pyridin-2-yl]-pyrazin-2-ylamine]	0.22 µM	0.41 µM
CC(C)[C@](C)(c1ccc(-c2cnc(N)nc2)nc1)c1noc(-c2cnn(CCS(C)(=O)=O)c2)n1 [Example 128, 5-[5-((R)-1-{5-[1-(2-Methanesulfonyl-ethyl)-1H-pyrazol-4-yl]-[1,2,4]oxadiazol-3-yl}-1,2-dimethyl-propyl)-pyridin-2-yl]-pyrimidin-2-ylamine]	0.01 µM	0.27 µM
CC(C)[C@](C)(c1ccc(-c2cnc(N)nc2)nc1)c1noc(-c2cnn(CC#N)c2)n1 [Example 129, [4-(3-{(R)-1-[6-(2-Amino-pyrimidin-5-yl)-pyridin-3-yl]-1,2-dimethyl-propyl}-[1,2,4]oxadiazol-5-yl)-pyrazol-1-yl]-acetonitrile]	0.0081 µM	0.019 µM
CNc1cnc(-c2ccc(C(C)(c3noc(-c4cnn(CC(C)(C)O)c4)n3)C3CC3)cn2)cn1 (centres unmarked) [Example 130, 1-[4-(3-{1-Cyclopropyl-1-[6-(5-methylamino-pyrazin-2-yl)-pyridin-3-yl]-ethyl}-[1,2,4]oxadiazol-5-yl)-pyrazol-1-yl]-2-methyl-propan-2-ol]	0.015 µM	0.094 µM
CC(C)[C@](C)(c1ccc(-c2ccc(N)nc2)nc1)c1noc(-c2cnn(C3COC3)c2)n1 [Example 131, 5-{(R)-1,2-Dimethyl-1-[5-(1-oxetan-3-yl-1H-pyrazol-4-yl)-[1,2,4]oxadiazol-3-yl]-propyl}-[2,3′]bipyridinyl-6′-ylamine]	0.0056 µM	0.039 µM
CC(C)[C@](C)(c1ccc(-c2ccc(N)nc2)nc1)c1noc(-c2cnn(CC(=O)N(C)C)c2)n1 [Example 132, 2-(4-{3-[(R)-1-(6′-Amino-[2,3′]bipyridinyl-5-yl)-1,2-dimethyl-propyl]-[1,2,4]oxadiazol-5-yl}-pyrazol-1-yl)-N,N-dimethyl-acetamide]	0.012 µM	0.13 µM
COCCn1cc(-c2nc([C@@](C)(c3ccc(-c4ccc(N)nc4)nc3)C(C)C)no2)cn1 [Example 133, 5-((R)-1-{5-[1-(2-Methoxy-ethyl)-1H-pyrazol-4-yl]-[1,2,4]oxadiazol-3-yl}-1,2-dimethyl-propyl)-[2,3′]bipyridinyl-6′-ylamine]	0.0075 µM	0.03 µM
C[C@@](c1ccc(-c2cnc(N)nc2)nc1)(c1noc(-c2cnc(N3CCNCC3)cn2)n1)C1CC1 [Example 134, 5-(5-{(R)-1-Cyclopropyl-1-[5-(3,4,5,6-tetrahydro-2H-[1,2′]bipyrazinyl-5′-yl)-[1,2,4]oxadiazol-3-yl]-ethyl}-pyridin-2-yl)-pyrimidin-2-ylamine]	0.0072 µM	0.31 µM
CC(C)[C@](C)(c1ccc(-c2ccc(N)nc2)nc1)c1noc(-c2cnn(CC(C)(C)O)c2)n1 [Example 136, 1-(4-{3-[(R)-1-(6′-Amino-[2,3′]bipyridinyl-5-yl)-1,2-dimethyl-propyl]-[1,2,4]oxadiazol-5-yl}-pyrazol-1-yl)-2-methyl-propan-2-ol]	0.0099 µM	0.061 µM
CC(C)[C@](C)(c1ccc(-c2ccc(N)nc2)nc1)c1noc(-c2cnc(N3CCNCC3)cn2)n1 [Example 137, 5-{(R)-1,2-Dimethyl-1-[5-(3,4,5,6-tetrahydro-2H-[1,2′]bipyrazinyl-5′-yl)-[1,2,4]oxadiazol-3-yl]-propyl}-[2,3′]bipyridinyl-6′-ylamine]	0.011 µM	0.59 µM
COCCn1cc(-c2nc([C@@](C)(c3ccc(-c4ccc(N)nc4)nc3)C3CC3)no2)cn1 [Example 138, 5-((R)-1-Cyclopropyl-1-{5-[1-(2-methoxy-ethyl)-1H-pyrazol-4-yl]-[1,2,4]oxadiazol-3-yl}-ethyl)-[2,3′]bipyridinyl-6′-ylamine]	0.022 µM	0.1 µM
CC(C)(O)Cn1cc(-c2nc([C@@](C)(c3ccc(-c4ccc(N)nc4)nc3)C3CC3)no2)cn1 [Example 139, 1-(4-{3-[(R)-1-(6′-Amino-[2,3′]bipyridinyl-5-yl)-1-cyclopropyl-ethyl]-[1,2,4]oxadiazol-5-yl}-pyrazol-1-yl)-2-methyl-propan-2-ol]	0.033 µM	0.068 µM
CN(C)C(=O)Cn1cc(-c2nc([C@@](C)(c3ccc(-c4ccc(N)nc4)nc3)C3CC3)no2)cn1 [Example 140, 2-(4-{3-[(R)-1-(6′-Amino-[2,3′]bipyridinyl-5-yl)-1-cyclopropyl-ethyl]-[1,2,4]oxadiazol-5-yl}-pyrazol-1-yl)-N,N-dimethyl-acetamide]	0.044 µM	0.15 µM
CC(C)[C@](C)(c1ccc(-c2cnc(N)nc2)nc1)c1noc(-c2cnn(CC(=O)NC(C)(C)C)c2)n1 [Example 141, 2-[4-(3-{(R)-1-[6-(2-Amino-pyrimidin-5-yl)-pyridin-3-yl]-1,2-dimethyl-propyl}-1,2,4-oxadiazol-5-yl)-pyrazol-1-yl]-N-tert-butyl-acetamide]	0.0083 µM	0.068 µM
CC(C)NC(=O)Cn1cc(-c2nc([C@@](C)(c3ccc(-c4cnc(N)nc4)nc3)C(C)C)no2)cn1 [Example 142, 2-[4-(3-{(R)-1-[6-(2-Amino-pyrimidin-5-yl)-pyridin-3-yl]-1,2-dimethyl-propyl}-1,2,4-oxadiazol-5-yl)-pyrazol-1-yl]-N-isopropyl-acetamide]	0.016 µM	0.085 µM
CC(C)[C@](C)(c1ccc(-c2cnc(N)nc2)nc1)c1noc(-c2cnn(CC(=O)N(C)C(C)(C)C)c2)n1 [Example 143, 2-[4-(3-{(R)-1-[6-(2-Amino-pyrimidin-5-yl)-pyridin-3-yl]-1,2-dimethyl-propyl}-1,2,4-oxadiazol-5-yl)-pyrazol-1-yl]-N-tert-butyl-N-methyl-acetamide]	0.0092 µM	0.051 µM
CC(C)[C@](C)(c1ccc(-c2cnc(N)nc2)nc1)c1noc(-c2cnn(CC(=O)N(C)C3CC3)c2)n1 [Example 144, 2-[4-(3-{(R)-1-[6-(2-Amino-pyrimidin-5-yl)-pyridin-3-yl]-1,2-dimethyl-propyl}-1,2,4-oxadiazol-5-yl)-pyrazol-1-yl]-N-cyclopropyl-N-methyl-acetamide]	0.013 µM	0.068 µM
CC(C)CNC(=O)Cn1cc(-c2nc([C@@](C)(c3ccc(-c4cnc(N)nc4)nc3)C(C)C)no2)cn1 [Example 145, 2-[4-(3-{(R)-1-[6-(2-Amino-pyrimidin-5-yl)-pyridin-3-yl]-1,2-dimethyl-propyl}-1,2,4-oxadiazol-5-yl)-pyrazol-1-yl]-N-isobutyl-acetamide]	0.014 µM	0.11 µM
CC(C)[C@](C)(c1ccc(-c2cnc(N)nc2)nc1)c1noc(-c2cnn(CC(=O)N(C)CC3CCCO3)c2)n1 (stereo partly drawn) [Example 146, 2-[4-(3-{(R)-1-[6-(2-Amino-pyrimidin-5-yl)-pyridin-3-yl]-1,2-dimethyl-propyl}-1,2,4-oxadiazol-5-yl)-pyrazol-1-yl]-N-methyl-N-(tetrahydro-furan-2-ylmethyl)-acetamide]	0.0094 µM	0.053 µM
CC(C)[C@](C)(c1ccc(-c2cnc(N)nc2)nc1)c1noc(-c2cnn(CC(=O)NC3CC3)c2)n1 [Example 147, 2-[4-(3-{(R)-1-[6-(2-Amino-pyrimidin-5-yl)-pyridin-3-yl]-1,2-dimethyl-propyl}-1,2,4-oxadiazol-5-yl)-pyrazol-1-yl]-N-cyclopropyl-acetamide]	0.0086 µM	0.17 µM
CC(C)[C@](C)(c1ccc(-c2cnc(N)nc2)nc1)c1noc(-c2cnn(CC(=O)NCC3CCCO3)c2)n1 (stereo partly drawn) [Example 148, 2-[4-(3-{(R)-1-[6-(2-Amino-pyrimidin-5-yl)-pyridin-3-yl]-1,2-dimethyl-propyl}-1,2,4-oxadiazol-5-yl)-pyrazol-1-yl]-N-(tetrahydro-furan-2-ylmethyl)-acetamide]	0.022 µM	0.29 µM
CCNC(=O)Cn1cc(-c2nc([C@@](C)(c3ccc(-c4cnc(N)nc4)nc3)C(C)C)no2)cn1 [Example 149, 2-[4-(3-{(R)-1-[6-(2-Amino-pyrimidin-5-yl)-pyridin-3-yl]-1,2-dimethyl-propyl}-1,2,4-oxadiazol-5-yl)-pyrazol-1-yl]-N-ethyl-acetamide]	0.015 µM	0.14 µM
COC1CCN(C(=O)Cn2cc(-c3nc([C@@](C)(c4ccc(-c5cnc(N)nc5)nc4)C(C)C)no3)cn2)C1 (stereo partly drawn) [Example 150, 2-[4-(3-{(R)-1-[6-(2-Amino-pyrimidin-5-yl)-pyridin-3-yl]-1,2-dimethyl-propyl}-1,2,4-oxadiazol-5-yl)-pyrazol-1-yl]-1-(3-methoxy-pyrrolidin-1-yl)-ethanone]	0.042 µM	0.18 µM
CC(C)[C@](C)(c1ccc(-c2cnc(N)nc2)nc1)c1noc(-c2cnn(CC(=O)N3CCOCC3)c2)n1 [Example 151, 2-[4-(3-{(R)-1-[6-(2-Amino-pyrimidin-5-yl)-pyridin-3-yl]-1,2-dimethyl-propyl}-1,2,4-oxadiazol-5-yl)-pyrazol-1-yl]-1-morpholin-4-yl-ethanone]	0.032 µM	0.19 µM
COCCNC(=O)Cn1cc(-c2nc([C@@](C)(c3ccc(-c4cnc(N)nc4)nc3)C(C)C)no2)cn1 [Example 152, 2-[4-(3-{(R)-1-[6-(2-Amino-pyrimidin-5-yl)-pyridin-3-yl]-1,2-dimethyl-propyl}-1,2,4-oxadiazol-5-yl)-pyrazol-1-yl]-N-(2-methoxy-ethyl)-acetamide]	0.024 µM	0.19 µM
